In patent US7378445B2, “Treatment of prostate cancer” (Peplin Research Pty. Ltd., priority 2000, dated 2008):

Key:
Format in all cases: cell-based
[1] = tested on: DU145 prostate cancer cells; test: Combination with chemotherapeutic agents, cytotoxicity (3H-thymidine incorporation); settings: 24 hr treatment, then five days growth; for cytotoxicity of combination with cisplatin compared to additive cytotoxicity: FIGS. 6A, 6B, 6E; for cytotoxicity of combination with SBHA compared to additive cytotoxicity: FIGS. 6C, 6D
Description: The prostate cancer cells were treated with (A) PEP006 and cisplatin, (B) PEP008 and cisplatin, (C) PEP005 and SBHA, (D) PEP008 and SBHA and (E) PEP005 and cisplatin for 24 hr after which the medium was changed and the cells permitted to grow in the presence of ^3H-thymidine for five days. The percentage cell survival was determined by measuring the incorporation of ^3H-thymidine in the cells.

[2] = tested on: neonatal foreskin fibroblasts; test: Killing by untreated leukocytes of drug-pretreated normal cells ([3H]-thymidine); settings: target cells pretreated with 60 ng/mL for 20 hr, washed; 48 hr with human leukocytes; 100:1 ratio of effector:target cells
Description: (§1) The question of whether drug treatment of the target tumor cells causes them to become susceptible to effector cells of the immune system was addressed as follows.
(§2) Leukocytes obtained by lysis of human peripheral blood were added to 5000 MM96L human melanoma cells or 7000 neonatal foreskin fibroblasts per microtitre well at effector: target ratios of 1000, 100 and 10:1. The target cells had been treated with 60 ng/mL PEP008 for 20 hr beforehand, and washed and the medium replaced before the leukocytes were added. After 48 hr incubation with the leukocytes the cultures were washed and labelled with [3H]-thymidine for 2 hr. […] Untreated leukocytes had no effect on cell survival.

[3] = tested on: MM96L human melanoma cells; test: Killing by untreated leukocytes of drug-pretreated tumor cells ([3H]-thymidine); settings: target cells pretreated with 60 ng/mL for 20 hr, washed; 48 hr with human leukocytes; 100:1 ratio of effector:target cells
Description: as §1, §2

| Structure (SMILES) | cytotoxicity of combination with cisplatin compared to additive cytotoxicity [1] | cytotoxicity of combination with SBHA compared to additive cytotoxicity [1] | survival of normal fibroblasts [2] [%] | survival of melanoma cells [3] [%] |
| --- | --- | --- | --- | --- |
| C/C=C(/C)C(=O)O[C@H]1C(C)=C[C@]23C(=O)[C@@H](C=C(CO)[C@@H](O)[C@]12O)[C@H]1[C@@H](C[C@H]3C)C1(C)C [PEP005, Ingenol-3-angelate] | synergistic combinations | synergistic combinations |  |  |
| C/C=C(/C)C(=O)O[C@H]1C(C)=C[C@]23C(=O)[C@H](C=C(C)[C@@H](O)[C@]12O)[C@H]1[C@@H](C[C@H]3C)C1(C)C [PEP006, 20-deoxy-Ingenol-3-angelate] | synergistic combinations |  |  |  |
| C/C=C(/C)C(=O)O[C@H]1C(C)=C[C@]23C(=O)[C@@H](C=C(COC(C)=O)[C@@H](O)[C@]12O)[C@H]1[C@@H](C[C@H]3C)C1(C)C [PEP008, 20-O-acetyl-ingenol-3-angelate] | synergistic combinations | synergistic combinations | 100 | 12 |
